Test results: article PMC6222781, “Structural Optimization of Foldamer-Dendrimer Conjugates as Multivalent Agents against the Toxic Effects of Amyloid Beta Oligomers” (Molecules : A Journal of Synthetic Chemistry and Natural …, 2018)

Columns and labels:
[1] = tested on: SH-SY5Y neuroblastoma cells; type: cell-based, human; conditions: 24 h, Aβ oligomers 10 µM alone, mean ± SEM, N = 4–8
Protocol: Real-time cell impedance measurement assay (xCELLigence) was utilized to test the effects of Aβ and the protective effect of the compounds 1, 3–5 on SH-SY5Y neuroblastoma cells. Cells were treated with Aβ oligomers in the concentration of 10 µM either alone or together with compounds 1, 3–5, which were applied in two different concentrations (5 or 10 μM). The cell index was monitored continuously for 48 h. Figure 6 represents the viability readouts after 24 h and 48 h (Table S3). Aβ caused a significant reduction in the viability after 24 h (red column, 85.1 ± 2.6% of control) reflecting the effects of an elongated treatment. […]
Figure 6 Cell viability readouts based on impedance analysis after treatments at different time points: (A) 24 h (B) 48 h. […]
Differentiated SH-SY5Y cells were grown in Dulbecco’s Modified Eagle’s Medium (DMEM) and F12-Ham’s culture medium at a 1:1 ratio supplemented with 10% (v/v) fetal bovine serum (FBS), 1% (v/v) L-glutamine, and 50 µg/mL gentamicin. […] Cells were cultured for 5–7 days and monitored every 15 min until the end of experiments. […] The resulting data was analyzed using real-time cell analyzer software (RTCA, Roche, Basel, Switzerland) and exported to Excel.

acute hippocampal slices = assay: Ex vivo MTT tissue viability test on acute hippocampal slices treated with Aβ oligomers after oxygen-glucose deprivation; type: cell-based, Wistar rats; conditions: 4 h, Aβ oligomers 10 µM alone, untreated slices as control, mean ± SD, N = 4
Text: We have applied a rapid, reliable assay, which utilizes acute hippocampal slices for MTT measurements to test the short-term effect of toxic Aβ oligomers on the viability of the surviving cells in the tissue. Acute hippocampal brain slices can be maintained ex vivo only for a few hours, thus excluding the possibility of studying the long-term effects of neuroprotective compounds. Still, the combination of oxygen-glucose deprivation and treatment with Aβ oligomers makes this assay applicable on a short-term basis, which is otherwise impossible with convenient in vitro methods. The Aβ treatment combined with this short and mild oxygen-glucose deprivation provided a relevant ex vivo model for the aging brain and a standard MTT assay was used for the quantification of toxicity (Table S2). Treatment with Aβ oligomers in 10 µM concentration caused a significant decrease in tissue viability after 4 h (Figure 5, white column, 43.2 ± 1.6% of control). To test the neuroprotective effects of the compounds, slices were treated with Aβ in the presence of equimolar amounts of 1, 3–6, respectively. […]
Toxicity measurements were carried out using freshly prepared slices (N = 2 × 10 for one case) of the brains of 10 ± 1-week-old Wistar rats (4 animals, thickness of the brain slices: 400 µm). […] After the treatment, brain slice viability was measured using a specific MTT assay. […]

Question: Which results are given for “Aβ oligomers: oligomers of amyloid β (1–42) prepared from Ser26 depsipeptide iso-Aβ (1–42)”?
Answer: viability, Aβ alone [1]: 85.1 ± 2.6 % of control; tissue viability, Aβ oligomers alone (acute hippocampal slices): 43.2 ± 1.6 % of control
